According to PubChem BioAssay AID1918996 (Molecular Pharmacology Branch, DTP, NCI, 2023):

Test system: 349418-098-R-PDC complex spheroid growth
Experiment: Anticancer human tumor 349418-098-R-PDC patient-derived lung adenocarcinoma cell line growth inhibition [AhR]
Settings: for IC50: curve of first compound; for viability, T/C: stronger effect = lower value
In short: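 Complex tumor spheroids co-cultured with HUVEC and human MSC stroma; AhR antagonists tested in combination with standard-of-care and investigational agents. Top concentration at or near clinical Cmax (else 10 microM), half-log dilutions; growth expressed as percent test/control.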

[1] = second compound 0.1 µM, first compound 0.0316 µM
[2] = second compound 0.1 µM, first compound 0.1 µM
[3] = second compound 0.1 µM, first compound 0.316 µM
[4] = second compound 0.1 µM, first compound 1 µM
[5] = second compound 0.1 µM, first compound 3.16 µM
[6] = second compound 0.1 µM, first compound 10 µM
[7] = second compound 0.316 µM, first compound 0.0316 µM
[8] = second compound 0.316 µM, first compound 0.1 µM
[9] = second compound 0.316 µM, first compound 0.316 µM
[10] = second compound 0.316 µM, first compound 1 µM
[11] = second compound 0.316 µM, first compound 3.16 µM
[12] = second compound 0.316 µM, first compound 10 µM
[13] = second compound 1 µM, first compound 0.0316 µM
[14] = second compound 1 µM, first compound 0.1 µM
[15] = second compound 1 µM, first compound 0.316 µM
[16] = second compound 1 µM, first compound 1 µM
[17] = second compound 1 µM, first compound 3.16 µM
[18] = second compound 1 µM, first compound 10 µM
[19] = second compound 3.16 µM, first compound 0.0316 µM
[20] = second compound 3.16 µM, first compound 0.1 µM
[21] = second compound 3.16 µM, first compound 0.316 µM
[22] = second compound 3.16 µM, first compound 1 µM
[23] = second compound 3.16 µM, first compound 3.16 µM
[24] = second compound 3.16 µM, first compound 10 µM
[25] = second compound 10 µM, first compound 0.0316 µM
[26] = second compound 10 µM, first compound 0.1 µM
[27] = second compound 10 µM, first compound 0.316 µM
[28] = second compound 10 µM, first compound 1 µM
[29] = second compound 10 µM, first compound 3.16 µM
[30] = second compound 10 µM, first compound 10 µM
[31] = second compound 0.1 µM, first compound 0.00316 µM
[32] = second compound 0.1 µM, first compound 0.01 µM
[33] = second compound 0.316 µM, first compound 0.00316 µM
[34] = second compound 0.316 µM, first compound 0.01 µM
[35] = second compound 1 µM, first compound 0.00316 µM
[36] = second compound 1 µM, first compound 0.01 µM
[37] = second compound 3.16 µM, first compound 0.00316 µM
[38] = second compound 3.16 µM, first compound 0.01 µM
[39] = second compound 10 µM, first compound 0.00316 µM
[40] = second compound 10 µM, first compound 0.01 µM
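Also: spheroids exposed to agents for seven days before luminescence viability read.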
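For viability, T/C in this document: spheroids also contain HUVEC endothelial cells and human MSC stroma.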

| IC50 (second compound 0.1 µM) | IC50 (second compound 0.316 µM) | IC50 (second compound 1 µM) | IC50 (second compound 3.16 µM) | IC50 (second compound 10 µM) | Compound | viability, T/C [1] | viability, T/C [2] | viability, T/C [3] | viability, T/C [4] | viability, T/C [7] | viability, T/C [8] | viability, T/C [9] | viability, T/C [10] | viability, T/C [13] | viability, T/C [14] | viability, T/C [15] | viability, T/C [19] | viability, T/C [20] | viability, T/C [25] | viability, T/C [26] | also measured |
| --- | --- | --- | --- | --- | --- | --- | --- | --- | --- | --- | --- | --- | --- | --- | --- | --- | --- | --- | --- | --- | --- |
| > 10000 nM | > 10000 nM | > 10000 nM | > 10000 nM | > 10000 nM | CC(C)c1c(-c2ccccc2)nc2c(C#N)c[nH]n2c1=O + Cc1ccccc1N=Nc1ccc(NC(=O)c2ccnn2C)c(C)c1 | 79.3% | 85.6% | 95.2% | 98% | 88.2% | 87.3% | 86.2% | 88.7% | 91.6% | 79.8% | 88.8% | 81.7% | 89.9% | 47.5% | 58.1% | viability, T/C [5]: 78%; viability, T/C [6]: 76.5%; viability, T/C [11]: 80%; viability, T/C [12]: 84.7%; viability, T/C [16]: 91.4%; viability, T/C [17]: 79.9%; viability, T/C [18]: 58.7%; viability, T/C [21]: 85.2%; viability, T/C [22]: 85.7%; viability, T/C [23]: 53.9%; viability, T/C [24]: 62.4%; viability, T/C [27]: 59.1%; viability, T/C [28]: 50.4%; viability, T/C [29]: 44.7%; viability, T/C [30]: 57.1% |
| 15.3 nM | 14.1 nM | 14.4 nM | < 0.316 nM | < 0.316 nM | CC[C@@]1(O)C(=O)OCc2c1cc1n(c2=O)Cc2cc3c(CN(C)C)c(O)ccc3nc2-1 + Cc1cncc(-c2nc(NCCc3c[nH]c4ccccc34)c3ncn(C(C)C)c3n2)c1 | 29.4% | 6.14% |  |  | 23.8% | 6.37% |  |  | 24.5% | 7.22% |  | 10.1% | 5.91% | 1.32% | 1.19% | viability, T/C (second compound 0.1 µM, first compound 0.000316 µM): 102%; viability, T/C (second compound 0.1 µM, first compound 0.001 µM): 93.9%; viability, T/C [31]: 91.6%; viability, T/C [32]: 60.7%; viability, T/C (second compound 0.316 µM, first compound 0.000316 µM): 87.3%; viability, T/C (second compound 0.316 µM, first compound 0.001 µM): 94%; viability, T/C [33]: 86.4%; viability, T/C [34]: 60.3%; viability, T/C (second compound 1 µM, first compound 0.000316 µM): 90.6%; viability, T/C (second compound 1 µM, first compound 0.001 µM): 93.5%; viability, T/C [35]: 84.2%; viability, T/C [36]: 62%; viability, T/C (second compound 3.16 µM, first compound 0.000316 µM): 24.8%; viability, T/C (second compound 3.16 µM, first compound 0.001 µM): 19.5%; viability, T/C [37]: 21%; viability, T/C [38]: 14.4%; viability, T/C (second compound 10 µM, first compound 0.000316 µM): 1.41%; viability, T/C (second compound 10 µM, first compound 0.001 µM): 1.47%; viability, T/C [39]: 1.56%; viability, T/C [40]: 1.49% |
| 476 nM | 384 nM | 426 nM | < 31.6 nM | < 31.6 nM | COc1cc(C2c3cc4c(cc3C(OC3OC5COC(C)OC5C(O)C3O)C3COC(=O)C23)OCO4)cc(OC)c1O (stereo not given) + Cc1cncc(-c2nc(NCCc3c[nH]c4ccccc34)c3ncn(C(C)C)c3n2)c1 | 97.8% | 99% | 62.4% | 24.9% | 103% | 86.5% | 58.3% | 19.1% | 93.3% | 90.9% | 59.6% | 24% | 19.2% | 1.7% | 1.71% | viability, T/C [5]: 9.98%; viability, T/C [6]: 4.8%; viability, T/C [11]: 8.45%; viability, T/C [12]: 5.08%; viability, T/C [16]: 20.9%; viability, T/C [17]: 9.01%; viability, T/C [18]: 6.23%; viability, T/C [21]: 14.8%; viability, T/C [22]: 10.2%; viability, T/C [23]: 7.3%; viability, T/C [24]: 4.57%; viability, T/C [27]: 1.45%; viability, T/C [28]: 1.18%; viability, T/C [29]: 1.04%; viability, T/C [30]: 1.29% |
| < 31.6 nM | < 31.6 nM | < 31.6 nM | < 31.6 nM | < 31.6 nM | COc1cccc2c1C(=O)c1c(O)c3c(c(O)c1C2=O)CC(O)(C(=O)CO)CC3OC1CC(N)C(O)C(C)O1 (stereo not given) + Cc1cncc(-c2nc(NCCc3c[nH]c4ccccc34)c3ncn(C(C)C)c3n2)c1 | 12.1% | 6.61% | 1.44% | 0.29% | 11.5% | 6.41% | 1.16% | 0.42% | 10.5% | 4.41% | 1.26% | 4.44% | 3.03% | 0.79% | 0.69% | viability, T/C [5]: 2.68%; viability, T/C [6]: 3.48%; viability, T/C [11]: 2.47%; viability, T/C [12]: 4%; viability, T/C [16]: 0.31%; viability, T/C [17]: 2.61%; viability, T/C [18]: 3.54%; viability, T/C [21]: 0.5%; viability, T/C [22]: 0.32%; viability, T/C [23]: 2.14%; viability, T/C [24]: 3.34%; viability, T/C [27]: 0.23%; viability, T/C [28]: 0.5%; viability, T/C [29]: 1.35%; viability, T/C [30]: 1.99% |
| < 31.6 nM | < 31.6 nM | < 31.6 nM | < 31.6 nM | < 31.6 nM | Nc1ccn(C2OC(CO)C(O)C2(F)F)c(=O)n1 (stereo not given) + Cc1cncc(-c2nc(NCCc3c[nH]c4ccccc34)c3ncn(C(C)C)c3n2)c1 | 5.21% | 5.33% | 4.29% | 4.06% | 5.26% | 5.35% | 4.46% | 4.46% | 5.67% | 5.73% | 5.73% | 8.15% | 6.5% | 4.66% | 3.51% | viability, T/C [5]: 3.79%; viability, T/C [6]: 3.29%; viability, T/C [11]: 3.84%; viability, T/C [12]: 3.1%; viability, T/C [16]: 4.6%; viability, T/C [17]: 6.45%; viability, T/C [18]: 3.8%; viability, T/C [21]: 5.64%; viability, T/C [22]: 4.25%; viability, T/C [23]: 4.89%; viability, T/C [24]: 3.39%; viability, T/C [27]: 3.29%; viability, T/C [28]: 4.08%; viability, T/C [29]: 2.99%; viability, T/C [30]: 2.51% |
| 177 nM | 221 nM | 305 nM | < 3.16 nM | < 3.16 nM | Nc1ncn(C2CC(O)C(CO)O2)c(=O)n1 (stereo not given) + Cc1cncc(-c2nc(NCCc3c[nH]c4ccccc34)c3ncn(C(C)C)c3n2)c1 | 80.3% | 59.9% | 40.9% | 29.1% | 83.2% | 69.9% | 40.7% | 25.7% | 82.7% | 68.6% | 50.1% | 21.9% | 17.4% | 1.75% | 1.51% | viability, T/C [31]: 88.5%; viability, T/C [32]: 97.9%; viability, T/C [33]: 93%; viability, T/C [34]: 88.3%; viability, T/C [35]: 84.6%; viability, T/C [36]: 87.2%; viability, T/C [16]: 34.3%; viability, T/C [37]: 20.6%; viability, T/C [38]: 21.6%; viability, T/C [21]: 17.7%; viability, T/C [22]: 16.2%; viability, T/C [39]: 1.51%; viability, T/C [40]: 1.55%; viability, T/C [27]: 1.2%; viability, T/C [28]: 1.31% |
